Reference: patent US20240034744A1, “COMPLEX COMPOUND OF COMPRISING THE CITRATE AND IRON ION AND THE FOOD COMPOSITION COMPRISING THE SAME” (priority 2022, published 2024)

Test: Measurement of solubility in water
Type: physicochemical
Conditions: 200 g/L in 15° C. water

| proportion of the complex compound precipitated | Substance | proportion of the complex compound dissolved | time for dissolution (100% dissolved) |
| --- | --- | --- | --- |
| – | iron-citrate complex compound [Example 1] | 100% | ≤ 5 min |
| 90% | iron-citrate complex compound [Comparative Example 1] | 10% | – |
